{"source": "patent US20230241076A1", "about": "“HISTONE-ACETYLATION-MODULATING AGENTS FOR THE TREATMENT AND PREVENTION OF ORGAN INJURY” (The Regents of the University of Michigan, priority 2020, published 2023)", "key": {"[1]": {"test_system": "ischemia reperfusion (IR) rats", "settings": "cited from earlier work; for heart function: ischemia reperfusion (IR) rats"}, "Irg1": {"test_system": "Irg1", "experiment": "Irg1 expression in cold-stored donor heart", "settings": "cold storage of donor heart, VPA treatment", "excerpt": "(§1) FIG. 7, panels A-C. […] Panels B and C."}, "[2]": {"test_system": "heart, kidneys, lung and liver", "settings": "cited from earlier work"}, "donor heart": {"test_system": "donor heart", "experiment": "donor heart function after 16 hr of cold storage followed by reperfusion (VPA)", "excerpt": "as §1"}, "[3]": {"test_system": "mineralocorticoid receptor (MR)", "settings": "cited from earlier work"}, "heart": {"test_system": "heart", "settings": "rats; cited from earlier work"}, "[4]": {"settings": "large epidemiologic studies; cited from earlier work"}, "heart failure": {"test_system": "heart failure", "settings": "cited from earlier work"}, "cardiomyocytes": {"test_system": "cardiomyocytes", "settings": "IR conditions; cited from earlier work"}, "murine donor heart [5]": {"test_system": "murine donor heart", "experiment": "murine donor heart, 16 h of cold storage followed by ex vivo perfusion", "settings": "50 μM, 60 minutes of reperfusion, N=8", "excerpt": "FIG. 2. […] N=8 at each time point."}, "pig donor heart": {"test_system": "pig donor heart", "experiment": "pig donor heart, 10 h of cold storage followed by ex vivo perfusion", "settings": "50 μM in HTK; 10 h of cold storage on ice, 30 minutes of reperfusion ex vivo; N=4", "description": "FIG. 5. […] Pig hearts were perfused with 1 L HTK solution after cross clamp. Addition 2 L of HTK with or without canrenone were perfused and stored for 10 hr on ice. Pig hearts were perfused in ex vivo system with blood and Krebs buffer (1:4, hemoglobin concentration: […]). max dp/dt (contraction) and min dp/dt (relaxation) were calculated by average the max/min dp/dt for 10 minute period after 30 minutes of reperfusion using Millar Catheter. *P<0.05, **P<0.01. N=4."}, "murine donor heart [6]": {"test_system": "murine donor heart", "experiment": "murine donor heart, 16 h of cold storage followed by 24 h of heterotopic transplantation", "assay_type": "in vivo", "settings": "50 μM in storage, n=8", "description": "FIG. 4. […] Donor heart was isolated and store with or without canrenone for 16 hr, then the donor hearts were heterotopic transplanted to receipt cervical region. max dp/dt (contraction) and min dp/dt (relaxation) were calculated by average the max/min dp/dt for 1 minute period after 24 hr of transplantation using Millar Catheter. *P<0.05, n=8."}}, "data": [{"smiles": "CCCCCCCC(=O)O", "note": "[octanoate]", "values": [{"measurement": "heart functional recovery", "setting": "[1]; 160 mg/kg i.p. injected once at the time of reperfusion", "value": "significant heart functional recovery"}, {"measurement": "heart function", "setting": "[1]", "value": "improve heart function"}]}, {"smiles": "CCCC(CCC)C(=O)O", "note": "[VPA, valproic acid]", "values": [{"measurement": "Irg1 expression", "setting": "Irg1", "value": "further stimulates Irg1 upregulation"}, {"measurement": "fibrosis", "setting": "[2]", "value": "reduce fibrosis"}, {"measurement": "effect of VPA on donor heart function with Irg1 deletion", "setting": "donor heart; Irg1 deletion, 16 hr of cold storage followed by reperfusion", "value": "Irg1 deletion reduce the protective effect"}, {"measurement": "donor heart ischemic tolerance", "setting": "donor heart; cold storage of donor heart", "value": "improve donor heart ischemic tolerance"}, {"measurement": "acetylation of the mineralocorticoid receptor (MR)", "setting": "[3]", "value": "affect the acetylation of the mineralocorticoid receptor"}, {"measurement": "protection of the heart against AMI injury", "setting": "heart", "value": "protects the heart against AMI injury"}, {"measurement": "incidence of stroke and AMI", "setting": "[4]", "value": "reduce the incidence of stroke and AMI"}]}, {"smiles": "Cc1sc2c(c1C)C(c1ccc(Cl)cc1)=N[C@@H](CC(=O)OC(C)(C)C)c1nnc(C)n1-2", "note": "[JQ-1]", "values": [{"measurement": "heart failure", "setting": "heart failure", "value": "effectively halt heart failure"}, {"measurement": "protection of cardiomyocytes", "setting": "cardiomyocytes", "value": "may protect cardiomyocytes"}]}, {"smiles": "CC(=O)O", "note": "[acetate]", "values": [{"measurement": "heart function", "setting": "[1]", "value": "improve heart function"}]}, {"smiles": "C[C@]12CCC(=O)C=C1C=C[C@@H]1[C@@H]2CC[C@@]2(C)[C@H]1CC[C@@]21CCC(=O)O1", "note": "[Canrenone, canrenone]", "values": [{"measurement": "donor heart function, max dp/dt (contraction) and min dp/dt (relaxation)", "setting": "murine donor heart [5]", "value": "improves murine donor heart function"}, {"measurement": "donor heart function, max dp/dt (contraction) and min dp/dt (relaxation)", "setting": "pig donor heart", "value": "improve pig donor heart function"}, {"measurement": "donor heart function, max dp/dt (contraction) and min dp/dt (relaxation)", "setting": "murine donor heart [6]", "value": "improve murine donor heart function"}]}]}
